Reference: patent US11254688B2 (Boehringer Ingelheim International GmbH, priority 2018, dated 2022)
Where a name gives a salt, the structure may show the parent alone.

molecular target: T1, hGOAT (Homo sapiens, UniProt Q96T53); test: Determination of hGOAT activity in HEK293 cells after incubation with test compound (acyl-ghrelin ELISA); type: cell-based; details: HEK293 cells stably transfected with preproghrelin and human GOAT; octanoate-BSA 100 μM; 5 hours incubation; acyl-ghrelin in medium by ELISA; 8 compound concentrations
T1 construct: expressed in transfected cells; host or cells: HEK293 (Hek293 hGOAT/PPGhrl Clone #1B8)
T1 sequence (Q96T53 1-435): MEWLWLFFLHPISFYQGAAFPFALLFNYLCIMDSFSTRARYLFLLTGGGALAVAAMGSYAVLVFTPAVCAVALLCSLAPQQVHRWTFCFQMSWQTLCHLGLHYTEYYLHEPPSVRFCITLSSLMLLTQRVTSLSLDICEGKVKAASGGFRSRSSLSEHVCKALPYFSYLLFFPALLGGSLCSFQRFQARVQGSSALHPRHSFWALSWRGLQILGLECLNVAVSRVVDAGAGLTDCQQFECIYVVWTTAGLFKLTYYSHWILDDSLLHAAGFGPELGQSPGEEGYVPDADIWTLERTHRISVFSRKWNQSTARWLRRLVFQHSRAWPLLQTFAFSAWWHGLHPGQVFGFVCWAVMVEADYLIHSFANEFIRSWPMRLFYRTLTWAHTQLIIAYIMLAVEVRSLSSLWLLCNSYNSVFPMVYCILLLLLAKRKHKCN
Procedure: Determination of hGOAT Activity in HEK293 Cells after Incubation with Test Compound
HEK293 cells stably transfected with two expression vectors, one coding for preproghrelin cDNA and a second for the expression of human GOATcDNA are used as a cellular model. After feeding the cells with octanoic acid for 5 hours, acyl-ghrelin is measured in cell culture medium by an ELISA procedure.
Cellline: Hek293 hGOAT/PPGhrl Clone #1B8Sodium octanoate, Sigma, Cat.-No. C5038
BD Poly-D-Lysin 384-well Plates, black-clear polystyrene BD Bioscience Cat.-No. […] ELISA human acylated Ghrelin Kit purchased from Bertin Pharman (detailed composition of buffers e.g. wash-puffer, ELISA buffer not known)
Cells are plated with a density of 5000 cells/well in 384-well poly-D-lysin plates and incubated for 1 day at 37° C., 5% CO2 in DMEM medium, 10% FCS, 1×NEAA, Puromycin (0.5 μg/ml) and G418 (1 mg/ml). Then the medium is changed to a identical medium without FCS and containing Octanoate-BSA (final concentration 100 μM each) and compound in DMSO (final DMSO concentration 0,3%). After incubation for 5 hours acylghrelin in the medium is measured by ELISA.
The medium sample is diluted 1:25 in Elisa buffer, a 25 μl aliquot is transferred to a 384-well ELISA plate previously washed 4 times with 100 μL wash buffer, and 25 μl tracer-solution is added. After incubation overnight (˜20 h) at 4° C. temperature the plate is washed 4 times with 100 μl wash-buffer per well. Finally 50 μl Ellman's reagent is added to each well and the plate is incubated in the dark for 20 minutes. The absorbance is measured at 405 nm in an Envision multilabel reader and the amount of acylated ghrelin is calculated according to a acylated ghrelin standard curve provided in the same plate.
The analysis of the data is performed by calculation of the percentage of acyl-ghrelin produced in the presence of test compound compared to the amount of acyl-ghrelin produced in the vehicle control samples. An inhibitor of the GOAT enzyme will give values between 100% CTL (no inhibition) and 0% CTL (complete inhibition).
IC50 values are calculated with Assay Explorer or other suited software based on curve fitting of results of 8 different compound concentrations.

| Compound | IC50 |
| --- | --- |
| Cc1nc2nonc2c(N)c1Cc1ccc(C(=O)NCc2ccn(C)n2)cc1 [Compound 14.4, 4-({7-Amino-5-methyl-[1,2,5]oxadiazolo[3,4-b]pyridin-6-yl}methyl)-N-[(1-methyl-1H-pyrazol-3-yl)methyl]benzamide] | 2250 pM |
| Cc1nc2nonc2c(N)c1Cc1ccc(CC#N)cc1 [Compound 2.15, 2-[4-({7-Amino-5-methyl-[1,2,5]oxadiazolo[3,4-b]pyridin-6-yl}methyl)phenyl]acetonitrile] | 887 pM |
| Cc1nc2nonc2c(N)c1Cc1cccc(OCF)c1 [Compound 8.1, 6-{[3-(Fluoromethoxy)phenyl]methyl}-5-methyl-[1,2,5]oxadiazolo[3,4-b]pyridin-7-amine] | 1090 pM |
| Cc1nc2nonc2c(N)c1Cc1cnc(C(F)(F)F)c(C#N)c1 [Compound 4.60, 5-({7-Amino-5-methyl-[1,2,5]oxadiazolo[3,4-b]pyridin-6-yl}methyl)-2-(trifluoromethyl)pyridine-3-carbonitrile] | 6740 pM |
| Cc1nc2nonc2c(N)c1Cc1ccc(C#N)c(OCC(C)(C)O)c1 [Compound 21.6, 4-({7-Amino-5-methyl-[1,2,5]oxadiazolo[3,4-b]pyridin-6-yl}methyl)-2-(2-hydroxy-2-methylpropoxy)benzonitrile] | 150 pM |
| Cc1nc2nonc2c(N)c1Cc1ccc(C#N)c(OCC2CC2(F)F)c1 (stereo not drawn) [Compound 21.5, 4-({7-Amino-5-methyl-[1,2,5]oxadiazolo[3,4-b]pyridin-6-yl}methyl)-2-[(2,2-difluorocyclopropyl)methoxy]benzonitrile] | 198 pM |
| Cc1nc2nonc2c(N)c1Cc1ccc(C#N)c(O[C@H]2CCC(=O)NC2)c1 [Compound 21.9, 4-({7-Amino-5-methyl-[1,2,5]oxadiazolo[3,4-b]pyridin-6-yl}methyl)-2-{[(3S)-6-oxopiperidin-3-yl]oxy}benzonitrile] | 17000 pM |
| Cc1nc2nonc2c(N)c1Cc1ccc(C(F)F)nc1 [Compound 4.30, 6-{[6-(Difluoromethyl)pyridin-3-yl]methyl}-5-methyl-[1,2,5]oxadiazolo[3,4-b]pyridin-7-amine] | 1390 pM |
| Cc1nc2nonc2c(N)c1Cc1ccc(Cl)nc1C(F)(F)F [Compound 25.3, 6-{[6-Chloro-2-(trifluoromethyl)pyridin-3-yl]methyl}-5-methyl-[1,2,5]oxadiazolo[3,4-b]pyridin-7-amine] | 7360 pM |
| Cc1nc2nonc2c(N)c1Cc1ccc(Br)c(C(N)=O)c1 [Compound 19.5, 5-({7-Amino-5-methyl-[1,2,5]oxadiazolo[3,4-b]pyridin-6-yl}methyl)-2-bromobenzamide] | 2220 pM |
| Cc1nc2nonc2c(N)c1Cc1ccc(C(=O)NC2CCOCC2)cc1 [Compound 14.5, 4-({7-Amino-5-methyl-[1,2,5]oxadiazolo[3,4-b]pyridin-6-yl}methyl)-N-(oxan-4-yl)benzamide] | 2370 pM |
| Cc1nc2nonc2c(N)c1Cc1ccc(-n2cccn2)nc1 [Compound 20.2, 5-Methyl-6-{[6-(1H-pyrazol-1-yl)pyridin-3-yl]methyl}-[1,2,5]oxadiazolo[3,4-b]pyridin-7-amine Trifluoro-Acetic Acid Salt] | 3240 pM |
| Cc1nc2nonc2c(N)c1Cc1ccc(OCC2CC2(F)F)nc1 (stereo in doubt) [Compound 21.13, 6-[(6-{[(1R)-2,2-Difluorocyclopropyl]methoxy}pyridin-3-yl)methyl]-5-methyl-[1,2,5]oxadiazolo[3,4-b]pyridin-7-amine] | 718 pM |
| Cc1nc2nonc2c(N)c1Cc1ccc(OC(F)(F)F)c(N=S(C)(C)=O)c1 [Compound 13.2, {[5-({7-Amino-5-methyl-[1,2,5]oxadiazolo[3,4-b]pyridin-6-yl}methyl)-2-(trifluoromethoxy)phenyl]imino}dimethyl-λ^6-sulfanone] | 33 pM |
| Nc1c(Cc2ccc(C(F)(F)F)cc2)c(C(F)F)nc2nonc12 [Compound 24.5, 5-(Difluoromethyl)-6-{[4-(trifluoromethyl)phenyl]methyl}-[1,2,5]oxadiazolo[3,4-b]pyridin-7-amine] | 289 pM |
| Cc1nc2nonc2c(N)c1Cc1ccc(C2(C#N)CCCC2)nc1 [Compound 4.26, 1-[5-({7-Amino-5-methyl-[1,2,5]oxadiazolo[3,4-b]pyridin-6-yl}methyl)pyridin-2-yl]cyclopentane-1-carbonitrile] | 98 pM |
| Cc1nc2nonc2c(N)c1Cc1ccnc(C#N)c1 [Compound 4.39, 4-({7-Amino-5-methyl-[1,2,5]oxadiazolo[3,4-b]pyridin-6-yl}methyl)pyridine-2-carbonitrile] | 9390 pM |
| Cc1nc2nonc2c(N)c1Cc1ccc(O)cc1 [Compound 10.1, 4-(7-Amino-5-methyl-[1,2,5]oxadiazolo[3,4-b]pyridin-6-ylmethyl)-phenol] | 594 pM |
| COc1ncccc1Cc1c(C)nc2nonc2c1N [Compound 2.11, 6-[(2-Methoxypyridin-3-yl)methyl]-5-methyl-[1,2,5]oxadiazolo[3,4-b]pyridin-7-amine] | 1070 pM |
| COc1cc(Cc2c(Cl)nc3nonc3c2N)ccc1C(F)(F)F [Compound 23.4, 5-Chloro-6-{[3-methoxy-4-(trifluoromethyl)phenyl]methyl}-[1,2,5]oxadiazolo[3,4-b]pyridin-7-amine] | 139 pM |
| Cc1nc2nonc2c(N)c1Cc1ccc(Cl)n2cnnc12 [Compound 4.14, 6-({5-Chloro-[1,2,4]triazolo[4,3-a]pyridin-8-yl}methyl)-5-methyl-[1,2,5]oxadiazolo[3,4-b]pyridin-7-amine] | 665 pM |
| Cc1nc2nonc2c(N)c1Cc1ccc(C(=O)Nc2ncnn2C)cc1 [Compound 14.17, 4-({7-Amino-5-methyl-[1,2,5]oxadiazolo[3,4-b]pyridin-6-yl}methyl)-N-(1-methyl-1H-1,2,4-triazol-5-yl)benzamide] | 4500 pM |
| Nc1c(Cc2ccc(C(F)(F)F)cc2)c(Cl)nc2nonc12 [Compound 23.2, 5-Chloro-6-{[4-(trifluoromethyl)phenyl]methyl}-[1,2,5]oxadiazolo[3,4-b]pyridin-7-amine] | 232 pM |
| Cc1nc2nonc2c(N)c1Cc1ccc2nn(C)cc2c1 [Compound 4.34, 5-Methyl-6-[(2-methyl-2H-indazol-5-yl)methyl]-[1,2,5]oxadiazolo[3,4-b]pyridin-7-amine] | 1400 pM |
| Cc1nc2nonc2c(N)c1Cc1cccc2c1cnn2C [Compound 2.13, 5-Methyl-6-[(1-methyl-1H-indazol-4-yl)methyl]-[1,2,5]oxadiazolo[3,4-b]pyridin-7-amine] | 660 pM |
| Cc1nc2nonc2c(N)c1Cc1ccc(C(=O)NC2CCN(C)C2=O)cc1 (stereo not drawn) [Compound 14.9, 4-({7-Amino-5-methyl-[1,2,5]oxadiazolo[3,4-b]pyridin-6-yl}methyl)-N-(1-methyl-2-oxopyrrolidin-3-yl)benzamide] | 3060 pM |
| Cc1nc2nonc2c(N)c1Cc1ccc(F)nc1 [Compound 4.4, 6-[(6-Fluoropyridin-3-yl)methyl]-5-methyl-[1,2,5]oxadiazolo[3,4-b]pyridin-7-amine] | 4060 pM |
| Cc1nc2nonc2c(N)c1Cc1ccc(C#N)c(OC(F)(F)F)c1 [Compound 4.43, 4-({7-Amino-5-methyl-[1,2,5]oxadiazolo[3,4-b]pyridin-6-yl}methyl)-2-(trifluoromethoxy)benzonitrile] | 52 pM |
| COc1cc(C(F)(F)F)ccc1Cc1c(C)nc2nonc2c1N [Compound 2.2, 6-{[2-Methoxy-4-(trifluoromethyl)phenyl]methyl}-5-methyl-[1,2,5]oxadiazolo[3,4-b]pyridin-7-amine] | 66 pM |
| Cc1nc2nonc2c(N)c1Cc1ccc(-c2c(C)noc2C)nc1 [Compound 12.6, 6-{[6-(3,5-Dimethyl-1,2-oxazol-4-yl)pyridin-3-yl]methyl}-5-methyl-[1,2,5]oxadiazolo[3,4-b]pyridin-7-amine] | 402 pM |
